Consider twelve compounds from US10793571B2, “Uses of diazepane derivatives” (Dana-Farber Cancer Institute, Inc., priority 2014, dated 2020).

As usually defined, the IC50 is the concentration that gives 50% inhibition. One may read the Kd as a measure of binding affinity in units of concentration. The low end stands for tighter binding, the high end for weaker binding.

The target of one test is T1, BRD4.1 (Homo sapiens, UniProt O60885).
T1 construct: final concentrations of BRD4.1 at 80 nM; His tag (inferred from the Ni-coated acceptor bead)
Put plainly: Acetyl-histone binding assay (AlphaScreen), percent inhibition of BRD4.1. The note with it: BRD4.1, 2.5 μM compound concentration, in vitro; read-out: % INHIB (at 2.5 uM). Here is the method:
(§1) Assays were performed with minor modifications from the manufacturer's protocol (PerkinElmer, USA). All reagents were diluted in 50 mM HEPES, 150 mM NaCl, 0.1% w/v BSA, and 0.01% w/v Tween^□ 20 at pH 7.5 and allowed to equilibrate to room temperature prior to addition to plates. After addition of Alpha beads to master solutions, all subsequent steps were performed in low light conditions. […] Addition to wells was performed with either a multichannel pipet (for optimization experiments) or a Biotek EL406 liquid handler. After a 1000-rpm spin-down for 1 minute, 100 nL of the solutions of the compounds of the invention from stock plates were added by pin transfer using a Janus Workstation (PerkinElmer, USA). The streptavidin-coated donor beads (25 μg/ml final) were added as with previous solution in a 2x, 10 μL volume. Following this addition, the plates were sealed with foil to block light exposure and to prevent evaporation. The plates were spun down again at 1000 rpm for 1 minute. Next, the plates were incubated in the room with the plate reader (for temperature equilibration) for 1.5 hour prior to reading the assay.
Background: In Alpha technology, singlet oxygen from a donor bead excites a nearby acceptor bead.

Another test addresses LRRK2 (Homo sapiens, UniProt Q5S007). Kind of test: LRRK2 IC50. In kind it is biochemical.
The test system of another test is MV411. Put plainly: Cellular assay (ATPlite cell viability), MV411. The note with it: MV411 cell line. The test is classed as cell-based. Here is the method:
(§2) The compounds of the invention are also evaluated in the BRD4 dependant cell line for the cellular activity to generate cellular IC50 values.
(§3) Cells (e.g., BRD4 dependant cells) were counted and adjusted to 60,000 cells/mL. Using a Biotek EL406, 50 μL, of the cells in media were distributed into 384 well white plates from Thermo. Immediately after plating, compounds of the invention in DMSO were distributed to plates. For large plate sets, cells were returned to a 37° C. incubator while not in use. The compounds were added to plates using a 100 nL 384 well pin transfer manifold on a Janus workstation. Stocks were arrayed in 10 point quadruplicate dose response in DMSO stock in 384-well Greiner compound plates. After addition of the compounds, plates were incubated for three days in a 37° C. incubator. Cell viability was read out using ATPlite from Perkin Elmer. Plates were removed from the incubator and brought to room temperature prior to use. Lyophilized powder was resuspended in lysis buffer and diluted 1:2 with DI water. 25 μL of this solution was added to each well using the Biotek liquid handler. Plates were sealed with adherent aluminum seals prior to vortexing and spinning down at 1000 g for 1 minute. Plates were incubated for 15 minutes at room temperature before signal was read on an Envision Plate Reader.
Background: Cellular ATP, detected with luciferase, serves as a proxy for viable cell number.

Another test relates to NOMO1. Kind of test: Cellular assay (ATPlite cell viability), NOMO1. The note with it: NOMO1 cell line. The test is classed as cell-based. As to the method:
as §2, §3

Another test concerns TF-1. Kind of test: Cellular assay (ATPlite cell viability), TF-1. The note with it: TF-1 cell line. The test is classed as cell-based. As to the method:
as §2, §3

The test system of the next test is MOLM-13. Put plainly: Cellular assay (ATPlite cell viability), MOLM-13. The test is classed as cell-based. The note with it: MOLM-13 cell line. As to the method:
as §2, §3

The next test relates to 797. Kind of test: Cellular assay (ATPlite cell viability), 797. The test is classed as cell-based. The following applies: 797 cell line. Here is the method: as §2, §3
Test [1] addresses T2, BRD4 (Homo sapiens, UniProt O60885). Kind of test: BRD4 IC50 (first BRD4 value listed in Table 2). In kind it is binding. The note with it: first BRD4 IC50 listed per compound. Here is the method:
as §1

The target of the next test is BRDT (Homo sapiens, UniProt Q58F21). Kind of test: BRDT IC50. The test is classed as binding.
Test [2] deals with T2, BRD4. Kind of test: BRD4 IC50 (second BRD4 value listed in Table 2). In kind it is binding. The note with it: second BRD4 IC50 listed per compound.
The subject of the next test is Kasumi-1. Put plainly: Cellular assay (ATPlite cell viability), Kasumi-1. In kind it is cell-based. The following applies: Kasumi-1 cell line. Here is the method: as §2, §3
Test [3] deals with T3, CREBBP (Homo sapiens, UniProt Q92793). Kind of test: CREBBP IC50. The test is classed as binding.
T3 sequence (Q92793 whole entry): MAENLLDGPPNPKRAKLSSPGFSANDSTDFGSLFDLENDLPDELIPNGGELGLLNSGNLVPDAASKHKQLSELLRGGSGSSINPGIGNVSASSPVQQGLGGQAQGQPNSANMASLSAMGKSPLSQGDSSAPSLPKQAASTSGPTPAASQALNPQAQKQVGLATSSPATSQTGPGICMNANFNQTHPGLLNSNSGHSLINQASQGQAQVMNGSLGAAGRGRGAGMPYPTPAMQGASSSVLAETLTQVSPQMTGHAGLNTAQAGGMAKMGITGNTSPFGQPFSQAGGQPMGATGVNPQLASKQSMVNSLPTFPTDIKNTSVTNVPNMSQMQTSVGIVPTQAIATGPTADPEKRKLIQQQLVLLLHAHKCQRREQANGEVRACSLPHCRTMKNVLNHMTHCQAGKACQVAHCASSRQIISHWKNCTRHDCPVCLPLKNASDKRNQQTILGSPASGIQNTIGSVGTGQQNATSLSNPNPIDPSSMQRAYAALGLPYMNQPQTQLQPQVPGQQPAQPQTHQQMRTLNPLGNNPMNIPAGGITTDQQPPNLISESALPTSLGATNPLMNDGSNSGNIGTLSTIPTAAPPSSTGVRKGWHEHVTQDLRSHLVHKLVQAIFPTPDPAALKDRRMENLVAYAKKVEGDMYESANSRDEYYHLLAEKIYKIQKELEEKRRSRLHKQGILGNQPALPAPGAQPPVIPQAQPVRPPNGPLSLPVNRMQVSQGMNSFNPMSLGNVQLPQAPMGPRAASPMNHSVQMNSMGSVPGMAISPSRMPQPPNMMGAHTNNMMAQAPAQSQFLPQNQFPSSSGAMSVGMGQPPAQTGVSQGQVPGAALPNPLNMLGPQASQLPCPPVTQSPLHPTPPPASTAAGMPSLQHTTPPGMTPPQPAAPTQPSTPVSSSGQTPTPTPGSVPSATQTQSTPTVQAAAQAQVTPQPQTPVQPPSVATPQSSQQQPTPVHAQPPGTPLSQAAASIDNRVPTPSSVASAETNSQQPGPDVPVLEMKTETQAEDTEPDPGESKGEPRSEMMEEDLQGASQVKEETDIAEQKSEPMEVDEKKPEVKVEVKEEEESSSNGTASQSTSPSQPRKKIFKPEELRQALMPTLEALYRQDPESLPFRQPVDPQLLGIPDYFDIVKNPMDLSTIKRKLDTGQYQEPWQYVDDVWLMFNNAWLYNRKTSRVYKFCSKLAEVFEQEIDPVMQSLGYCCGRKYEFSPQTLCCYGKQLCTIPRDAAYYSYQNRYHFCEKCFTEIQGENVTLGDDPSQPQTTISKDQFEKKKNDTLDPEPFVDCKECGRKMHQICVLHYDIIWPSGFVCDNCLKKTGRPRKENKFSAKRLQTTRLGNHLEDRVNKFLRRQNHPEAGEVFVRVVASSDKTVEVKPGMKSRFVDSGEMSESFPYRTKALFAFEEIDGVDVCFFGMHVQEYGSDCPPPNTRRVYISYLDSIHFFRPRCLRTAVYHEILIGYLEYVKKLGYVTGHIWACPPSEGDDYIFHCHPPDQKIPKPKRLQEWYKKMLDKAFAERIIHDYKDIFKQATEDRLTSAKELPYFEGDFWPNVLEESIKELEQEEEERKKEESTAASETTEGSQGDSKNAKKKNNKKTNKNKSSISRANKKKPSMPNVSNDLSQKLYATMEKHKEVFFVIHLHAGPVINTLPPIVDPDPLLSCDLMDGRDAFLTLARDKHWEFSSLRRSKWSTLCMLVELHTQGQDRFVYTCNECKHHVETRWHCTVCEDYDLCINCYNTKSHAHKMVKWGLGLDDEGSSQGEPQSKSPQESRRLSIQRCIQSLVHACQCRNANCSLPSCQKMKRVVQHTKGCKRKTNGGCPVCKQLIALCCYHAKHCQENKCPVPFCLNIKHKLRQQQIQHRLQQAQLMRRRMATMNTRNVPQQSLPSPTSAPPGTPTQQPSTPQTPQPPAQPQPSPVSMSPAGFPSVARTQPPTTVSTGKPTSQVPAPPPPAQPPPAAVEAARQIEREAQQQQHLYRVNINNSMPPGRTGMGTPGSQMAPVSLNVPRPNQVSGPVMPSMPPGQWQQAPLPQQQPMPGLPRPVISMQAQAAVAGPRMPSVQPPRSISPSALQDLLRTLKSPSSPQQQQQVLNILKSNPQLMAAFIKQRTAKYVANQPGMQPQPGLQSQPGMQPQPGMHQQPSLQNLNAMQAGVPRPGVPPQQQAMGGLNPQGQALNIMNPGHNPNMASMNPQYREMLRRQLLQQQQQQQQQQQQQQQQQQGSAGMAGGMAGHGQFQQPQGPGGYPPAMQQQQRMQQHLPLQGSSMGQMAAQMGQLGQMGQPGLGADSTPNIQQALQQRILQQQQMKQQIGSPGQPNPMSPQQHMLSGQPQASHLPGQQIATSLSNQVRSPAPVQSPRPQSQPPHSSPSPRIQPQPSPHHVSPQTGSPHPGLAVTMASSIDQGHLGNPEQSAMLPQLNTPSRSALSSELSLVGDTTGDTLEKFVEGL
In test [4] the target is T2, BRD4. Put plainly: BRD4 KD (DiscoveRx). The test is classed as binding.
For test [5], the target named is T3, CREBBP. Put plainly: CREBBP KD (DiscoveRx). In kind it is binding.

Chain of LRRK2 (Q5S007 whole entry): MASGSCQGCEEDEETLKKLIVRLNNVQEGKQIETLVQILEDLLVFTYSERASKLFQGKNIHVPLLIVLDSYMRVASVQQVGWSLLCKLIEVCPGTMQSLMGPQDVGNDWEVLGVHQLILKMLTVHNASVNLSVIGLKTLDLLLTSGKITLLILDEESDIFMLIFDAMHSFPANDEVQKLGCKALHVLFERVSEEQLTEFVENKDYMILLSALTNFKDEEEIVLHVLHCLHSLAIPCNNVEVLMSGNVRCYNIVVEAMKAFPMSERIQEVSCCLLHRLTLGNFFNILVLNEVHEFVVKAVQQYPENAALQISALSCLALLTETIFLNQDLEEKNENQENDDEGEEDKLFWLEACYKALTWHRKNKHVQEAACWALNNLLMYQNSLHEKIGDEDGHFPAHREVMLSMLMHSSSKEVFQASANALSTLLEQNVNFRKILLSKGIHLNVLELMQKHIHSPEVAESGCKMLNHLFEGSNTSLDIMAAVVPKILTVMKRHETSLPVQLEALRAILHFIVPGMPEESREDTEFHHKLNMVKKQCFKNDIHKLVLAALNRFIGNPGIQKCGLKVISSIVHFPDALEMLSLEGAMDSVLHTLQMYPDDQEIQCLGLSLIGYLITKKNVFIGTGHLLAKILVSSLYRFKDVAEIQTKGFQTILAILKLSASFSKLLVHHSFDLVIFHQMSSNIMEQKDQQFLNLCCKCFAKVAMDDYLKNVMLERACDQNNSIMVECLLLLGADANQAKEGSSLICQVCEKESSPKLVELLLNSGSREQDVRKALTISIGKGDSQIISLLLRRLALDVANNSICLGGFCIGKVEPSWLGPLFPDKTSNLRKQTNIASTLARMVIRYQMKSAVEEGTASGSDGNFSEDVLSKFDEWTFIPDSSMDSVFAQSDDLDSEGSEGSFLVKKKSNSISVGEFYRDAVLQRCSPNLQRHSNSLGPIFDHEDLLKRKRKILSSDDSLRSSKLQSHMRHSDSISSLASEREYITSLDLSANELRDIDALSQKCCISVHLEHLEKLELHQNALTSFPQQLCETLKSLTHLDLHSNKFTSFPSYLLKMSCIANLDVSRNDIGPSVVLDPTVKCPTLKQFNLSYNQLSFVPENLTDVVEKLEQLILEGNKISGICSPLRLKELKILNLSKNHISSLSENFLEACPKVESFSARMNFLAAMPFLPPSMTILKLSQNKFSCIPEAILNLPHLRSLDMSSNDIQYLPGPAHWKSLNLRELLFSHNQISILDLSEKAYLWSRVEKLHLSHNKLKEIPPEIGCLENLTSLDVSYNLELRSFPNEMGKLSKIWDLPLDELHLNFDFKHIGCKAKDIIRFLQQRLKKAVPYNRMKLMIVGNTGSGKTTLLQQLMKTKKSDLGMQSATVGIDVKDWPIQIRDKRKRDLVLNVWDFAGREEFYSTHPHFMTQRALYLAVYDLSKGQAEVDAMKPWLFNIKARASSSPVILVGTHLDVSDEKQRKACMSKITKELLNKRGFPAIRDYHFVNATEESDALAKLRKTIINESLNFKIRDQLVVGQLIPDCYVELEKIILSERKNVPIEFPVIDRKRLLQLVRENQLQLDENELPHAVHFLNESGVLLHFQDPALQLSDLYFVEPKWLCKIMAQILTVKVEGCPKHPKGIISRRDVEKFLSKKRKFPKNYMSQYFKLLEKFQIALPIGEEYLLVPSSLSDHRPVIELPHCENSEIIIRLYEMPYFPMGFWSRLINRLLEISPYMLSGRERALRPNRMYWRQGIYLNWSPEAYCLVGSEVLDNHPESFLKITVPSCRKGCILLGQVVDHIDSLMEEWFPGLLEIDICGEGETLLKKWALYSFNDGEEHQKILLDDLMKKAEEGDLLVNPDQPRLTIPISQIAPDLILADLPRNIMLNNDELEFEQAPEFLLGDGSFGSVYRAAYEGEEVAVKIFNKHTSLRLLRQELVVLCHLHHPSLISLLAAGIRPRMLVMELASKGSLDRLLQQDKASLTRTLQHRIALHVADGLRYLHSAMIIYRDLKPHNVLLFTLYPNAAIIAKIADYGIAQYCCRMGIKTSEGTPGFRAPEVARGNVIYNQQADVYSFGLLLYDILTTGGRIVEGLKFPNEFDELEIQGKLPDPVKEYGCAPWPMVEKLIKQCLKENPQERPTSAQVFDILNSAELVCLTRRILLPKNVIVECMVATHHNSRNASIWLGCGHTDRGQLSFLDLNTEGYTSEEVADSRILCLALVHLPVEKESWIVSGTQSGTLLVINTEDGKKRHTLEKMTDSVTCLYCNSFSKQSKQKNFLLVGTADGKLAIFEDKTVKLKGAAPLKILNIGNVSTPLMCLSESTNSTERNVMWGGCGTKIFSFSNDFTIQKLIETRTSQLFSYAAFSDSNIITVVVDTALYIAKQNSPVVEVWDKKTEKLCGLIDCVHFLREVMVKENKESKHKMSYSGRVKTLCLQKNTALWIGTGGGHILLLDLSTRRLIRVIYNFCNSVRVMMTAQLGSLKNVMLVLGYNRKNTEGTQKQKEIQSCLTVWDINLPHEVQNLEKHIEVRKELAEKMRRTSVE

`CCN1CCN(Cc2ccc(Nc3ncc4c(n3)N(C)c3ccccc3C(=O)N4C)cc2C(F)(F)F)CC1`: the inhibition at 2.5 µM on BRD4.1 was 45.8%.
With `COc1cc(N2CCN(C)CC2)ccc1Nc1ncc2c(n1)N(C)c1ccccc1C(=O)N2C`, the inhibition at 2.5 µM at BRD4.1 was 36.1%.
The same measure, in the same setting: in the case of `CCOc1cc(N2CCC(O)CC2)ccc1Nc1ncc2c(n1)N(C)c1ccccc1C(=O)N2C` it was 29.5%; in that of `CN1C(=O)c2ccccc2N(C)c2nc(Nc3ccc(N4CCC(O)CC4)cc3)ncc21`, 50.8%.
Regarding `COc1cc(C(=O)N2CCC(N3CCN(C)CC3)CC2)ccc1Nc1ncc2c(n1)N(C)c1ccccc1C(=O)N2C` [Compound 1-226], the IC50 was 0.007 µM against LRRK2; 0.549 µM with MV411 (Homo sapiens, MV4-11); 2 µM in the test on NOMO1 (Homo sapiens, NOMO-1); 3.36 µM with TF-1 (Homo sapiens); 1.27 µM in the test with MOLM-13 (Homo sapiens); 1.3 µM in the test on 797.
As to `COc1cc(C(=O)N2CCC(N3CCN(C)CC3)CC2)ccc1N(C)c1ncc2c(n1)N(C)c1ccccc1C(=O)N2C` [Compound 1-284], the IC50 was 1.99 µM on BRD4 [1]; 5.55 µM against BRDT; 2.6 µM at BRD4 [2]; 4 µM against LRRK2; 2.44 µM in the test with MV411 (Homo sapiens, MV4-11); 8.6 µM in the test on NOMO1 (Homo sapiens, NOMO-1). Moreover, the IC50 was determined as 1.86 µM in the test with Kasumi-1 (Homo sapiens), 6.16 µM in the test with TF-1 (Homo sapiens), 4.63 µM with MOLM-13 (Homo sapiens) and 7.42 µM with 797.
On to `CCN(c1ncc2c(n1)N(C)c1ccccc1C(=O)N2C)c1ccc(C(=O)N2CCC(N3CCN(C)CC3)CC2)cc1OC` [Compound 2-041], for which the IC50 is 0.00206 µM against BRD4 [1]; 9.61 µM at BRDT; 5.7 µM on BRD4 [2]; 3 µM against LRRK2; 3.48 µM with MV411 (Homo sapiens, MV4-11); 8.3 µM in the test with NOMO1 (Homo sapiens, NOMO-1). Moreover, the IC50 with Kasumi-1 (Homo sapiens) amounted to 2.36 µM; with TF-1 (Homo sapiens), 7.21 µM; in the test with MOLM-13 (Homo sapiens), 5.74 µM; with 797, 7.1 µM.
Consider `CN1C(=O)c2ccccc2N(C)c2nc(Nc3ccc(C(=O)O)cc3OC3CCCC3)ncc21` [Compound 2-043], for which the IC50 against BRD4 [1] was 0.732 µM; on BRDT, 2.73 µM; against BRD4 [2] it was 1.51 µM; in the test on MV411 (Homo sapiens, MV4-11), greater than 10 µM; with NOMO1 (Homo sapiens, NOMO-1), 6.8 µM; in the test on Kasumi-1 (Homo sapiens), 4.78 µM. Also, the figures for the IC50 in the test on TF-1 (Homo sapiens), in the test on MOLM-13 (Homo sapiens) and with 797 were 7.1 µM, 6.61 µM and 1.79 µM, respectively.
For the compound `CN1C(=O)c2ccccc2N(C)c2nc(Nc3ccc(S(N)(=O)=O)cc3)ncc21` [Compound 2-075], the half-inhibitory concentration (IC50) was found to be 0.97 µM against BRD4 [1] (unit nm [sic]); 2.88 µM at BRDT; 1.8 µM at BRD4 [2]; 0.252 µM with MV411 (Homo sapiens, MV4-11); 2.5 µM with NOMO1 (Homo sapiens, NOMO-1); 0.096 µM with Kasumi-1 (Homo sapiens). For the same compound, the IC50 was found to be 2.14 µM in the test on TF-1 (Homo sapiens), 0.433 µM in the test on MOLM-13 (Homo sapiens), 0.034 µM with 797 and 0.431 µM at CREBBP [3]. Moreover, the Kd stood at 0.18 µM on BRD4 [4] and 0.023 µM on CREBBP [5].
As to `C[C@@H](Oc1cc(-n2cnc3ccc(CN4CCN(C)CC4)cc32)sc1C(N)=O)c1ccccc1C(F)(F)F` [GSK461364, reference compound], the IC50 is greater than 50 µM against BRD4 [1]; 0.0071 µM in the test on MV411 (Homo sapiens, MV4-11); 0.00591 µM in the test with NOMO1 (Homo sapiens, NOMO-1); 0.0078 µM in the test with Kasumi-1 (Homo sapiens); 0.00693 µM in the test on MOLM-13 (Homo sapiens); 0.008 µM in the test on 797. Also, in the test with TF-1 (result in words), the “TF-1 IC50” value is on record as “poor convergence”.
Turning to `Cc1sc2c(c1C)C(c1ccc(Cl)cc1)=N[C@@H](CC(=O)OC(C)(C)C)c1nnc(C)n1-2` [JQ1, reference compound], the IC50 in the test with MV411 was determined as 0.0656 µM; with NOMO1, 0.172 µM; in the test with Kasumi-1, 0.0488 µM; in the test with TF-1 it was 109 µM; with MOLM-13, 0.0892 µM; in the test with 797 it was 0.092 µM.
On to `COc1cc(C(=O)N2CCC(N3CCN(C)CC3)CC2)ccc1Nc1ncc2c(n1)N(C)c1ccccc1C(=O)N2C` [drawing 33], for which the inhibition at 2.5 µM on BRD4.1 was 20.5%.
